Eleven molecules from ChEMBL document CHEMBL1201862, “PubChem BioAssay data set” (2004) can be followed below.

The structures appear in SMILES notation.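 Grown in 96-well plates, cells were treated for 48 hours with each compound at five concentrations. Insufficient inhibition: endpoint recorded as highest concentration tested. Abbreviation: GI50, concentration required for 50% inhibition of growth.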 Active and inactive are the calls of the source. Rule as the data show it: active = GI50 up to about 1.1 µM and inactive = higher. Where a SMILES comes first, the peptide text is derived from it. Bridges are numbered along the chain shown (N, C = ends). [ ]: non-standard residue; d: D form. The star is where a group is joined. ξ: configuration not given here. PhAc = O=C(Cc1ccccc1)*; ξP = O=C(O)C1CCCN1

Among the test systems are RXF 393; OVCAR-4; UACC-257; SK-MEL-2; Malme-3M; UACC-62; MOLT-4; TK-10; CCRF-CEM; NCI-H226; K562; DU-145; 786-0; SR; MCF7; CAKI-1; OVCAR-5; SK-MEL-5; RPMI-8226; HL-60.
What all share (assay): NCI tumour cell line growth inhibition, 48 h

As to `CC1OC(OC2C(OC3CCC4(C)C(CCC5(C)C4CC=C4C6CC(C)(C)CCC6(C(=O)O)CCC45C)C3(C)CO)OCC(O)C2O)C(O)C(O)C1O` (stereo not drawn), the GI50 with RXF 393 was 2.72 µM (inactive); in the experiment with OVCAR-4, 11.8 µM (inactive); in the experiment on UACC-257, 18.5 µM (inactive); with SK-MEL-2, 17.7 µM (inactive); with Malme-3M it was 19.3 µM (inactive); with UACC-62, 8.05 µM (inactive). Also, the GI50 is 14.6 µM (inactive) in the experiment with MOLT-4; 20 µM (inactive) in the experiment with TK-10; 4.68 µM (inactive) with CCRF-CEM; 21.2 µM (inactive) with NCI-H226; 11.6 µM (inactive) in the experiment on K562; 18.9 µM (inactive) in the experiment on DU-145. The GI50 in the experiment with 786-0 was 30.7 µM (inactive); in the experiment on SR, 3.33 µM (inactive); with MCF7 it was 0.46 µM (active); in the experiment with CAKI-1, 18.5 µM (inactive); in the experiment with OVCAR-5, 19.8 µM (inactive); in the experiment on SK-MEL-5, 17.8 µM (inactive).
For `C[N+]1(CC[N+]2(C)CCCC2c2cccnc2)CCCC1c1cccnc1` (stereo not drawn), the GI50 was > 100 µM (inactive) in the experiment on RXF 393; > 100 µM (inactive) with OVCAR-4; 76.2 µM (inactive) in the experiment on UACC-257; > 100 µM (inactive) in the experiment with SK-MEL-2; 59.3 µM (inactive) in the experiment with Malme-3M; > 100 µM (inactive) with UACC-62. Besides, the GI50 was 2.75 µM (inactive) in the experiment with MOLT-4; > 100 µM (inactive) with TK-10; 97.7 µM (inactive) in the experiment with RPMI-8226; 96.4 µM (inactive) in the experiment on K562; > 100 µM (inactive) with DU-145; 30.4 µM (inactive) in the experiment on 786-0. Also, the GI50 in the experiment with SR, in the experiment on MCF7, in the experiment on CAKI-1, with OVCAR-5 and with SK-MEL-5 was > 100 µM (inactive) each time.
Turning to `NNC(=O)c1c(Cl)c(Cl)c(Cl)c(Cl)c1-c1nc2ccccc2[nH]1`, the GI50 is 3.49 µM (inactive) with RXF 393; 4.7 µM (inactive) in the experiment on HL-60; 12.6 µM (inactive) with UACC-257; 6.41 µM (inactive) in the experiment with SK-MEL-2; 14.3 µM (inactive) in the experiment with Malme-3M; 10.4 µM (inactive) with UACC-62. Further, the GI50 in the experiment on MOLT-4 is 4.66 µM (inactive); in the experiment on TK-10, 21.6 µM (inactive); with CCRF-CEM it was 12.5 µM (inactive); with NCI-H226, 16.8 µM (inactive); in the experiment on RPMI-8226, 7.4 µM (inactive); with K562, 3.25 µM (inactive). In addition, the GI50 in the experiment with DU-145 was 13.2 µM (inactive); in the experiment on 786-0, 18.5 µM (inactive); in the experiment with SR, 2.63 µM (inactive); with MCF7, 2.96 µM (inactive); in the experiment with CAKI-1, 13.2 µM (inactive); in the experiment on OVCAR-5, 36.7 µM (inactive). Moreover, the GI50 in the experiment on SK-MEL-5 was 11.2 µM (inactive).
As for `Nn1c(Nc2ccc(S(=O)(=O)Nc3ncccn3)cc2)nnc(/C=C/c2c(O)ccc3ccccc23)c1=O`, the GI50 in the experiment on RXF 393 was 26.2 µM (inactive); in the experiment with HL-60 it was 20.6 µM (inactive); in the experiment with OVCAR-4 it was 24.5 µM (inactive); in the experiment with UACC-257 it was 20.1 µM (inactive); in the experiment with SK-MEL-2, 18.5 µM (inactive); in the experiment on Malme-3M it was 30.8 µM (inactive). Also, the GI50 in the experiment with UACC-62 was 20.5 µM (inactive); with MOLT-4, > 100 µM (inactive); with TK-10, 26.8 µM (inactive); in the experiment on CCRF-CEM it was 15.8 µM (inactive); in the experiment on RPMI-8226, 34.1 µM (inactive); in the experiment on K562 it was 29 µM (inactive). For the same molecule, the GI50 with DU-145 is 33.5 µM (inactive); with 786-0, 26.6 µM (inactive); in the experiment with SR, 23.4 µM (inactive); in the experiment with MCF7, 21.6 µM (inactive); with CAKI-1, 26.7 µM (inactive); in the experiment on OVCAR-5, 32.7 µM (inactive).
On to `OC1(c2ccc3ccccc3c2)c2ccc3ccccc3c2C2=NCCN21` (stereo not drawn), for which the GI50 in the experiment on RXF 393 was 29.4 µM (inactive); with HL-60 it was > 100 µM (inactive); in the experiment with OVCAR-4 it was 22.3 µM (inactive); in the experiment with UACC-257 it was > 100 µM (inactive); with SK-MEL-2 it was > 100 µM (inactive); with Malme-3M, > 100 µM (inactive). Further, the GI50 in the experiment on UACC-62 was > 100 µM (inactive); with MOLT-4 it was > 100 µM (inactive); in the experiment on TK-10, 28.3 µM (inactive); in the experiment with CCRF-CEM it was > 100 µM (inactive); with RPMI-8226 it was > 100 µM (inactive); in the experiment with K562, 45 µM (inactive). Moreover, the GI50 was > 100 µM (inactive) with DU-145; 24.8 µM (inactive) in the experiment with 786-0; 36.8 µM (inactive) in the experiment with SR; 48.2 µM (inactive) in the experiment with MCF7; > 100 µM (inactive) in the experiment with CAKI-1; > 100 µM (inactive) in the experiment on OVCAR-5. For the same molecule, the GI50 in the experiment with SK-MEL-5 is > 100 µM (inactive).
For the molecule `COC(=O)C1(C)CCc2c(ccc3ccccc23)C1=O` (stereo not drawn), the GI50 with RXF 393 is 25 µM (inactive); with HL-60, 35.9 µM (inactive); with UACC-257, 24.5 µM (inactive); in the experiment with SK-MEL-2 it was 26.8 µM (inactive); with Malme-3M, 27.8 µM (inactive); with UACC-62, 32.4 µM (inactive). The GI50 is 34.8 µM (inactive) in the experiment on MOLT-4; 31 µM (inactive) in the experiment with TK-10; 37.3 µM (inactive) in the experiment with CCRF-CEM; 23.2 µM (inactive) in the experiment on RPMI-8226; 52.4 µM (inactive) in the experiment on K562; 51.9 µM (inactive) with DU-145. For the same molecule, the GI50 is 65 µM (inactive) in the experiment on 786-0; 39.4 µM (inactive) in the experiment on SR; 30.6 µM (inactive) in the experiment with MCF7; 16.1 µM (inactive) with CAKI-1; > 100 µM (inactive) with OVCAR-5; 18.3 µM (inactive) in the experiment on SK-MEL-5.
With `COC(=O)C(CCCCN)NC(=O)C(CCCCN)NC(C)=O.Cc1ccc(C(=O)Nc2ccc(S(=O)(=O)O)c3cc(S(=O)(=O)O)cc(S(=O)(=O)O)c23)cc1NC(=O)c1cccc(NC(=O)Nc2cccc(C(=O)Nc3cc(C(=O)Nc4ccc(S(=O)(=O)O)c5cc(S(=O)(=O)O)cc(S(=O)(=O)O)c45)ccc3C)c2)c1`, the GI50 in the experiment with RXF 393 was > 50 µM (inactive); in the experiment on HL-60, > 50 µM (inactive); in the experiment with OVCAR-4, 8.73 µM (inactive); with UACC-257, > 50 µM (inactive); in the experiment with SK-MEL-2 it was > 50 µM (inactive); in the experiment with Malme-3M, > 50 µM (inactive). In addition, the GI50 with UACC-62, with MOLT-4, with CCRF-CEM, with NCI-H226, with RPMI-8226 and in the experiment on K562 was > 50 µM (inactive) throughout. Further, the GI50 with DU-145, in the experiment with 786-0, in the experiment on SR, in the experiment on MCF7, with CAKI-1 and in the experiment on SK-MEL-5 was > 50 µM (inactive) each time.
For the molecule `O=C(Cc1ccccc1)N[C@@H]1COC(=O)C2CCCN2C(=O)[C@@H]2CCCN2C1=O` (stereo partly drawn) (PhAc-[dS]-Pro-[ξP]; ester 1-C), the GI50 in the experiment with RXF 393, in the experiment with HL-60, with OVCAR-4, in the experiment with UACC-257, in the experiment with SK-MEL-2 and in the experiment with Malme-3M was > 100 µM (inactive) in each case. For the same molecule, the GI50 with UACC-62, in the experiment with MOLT-4, in the experiment with TK-10, in the experiment on CCRF-CEM, in the experiment with NCI-H226 and in the experiment on DU-145 was > 100 µM (inactive) in each case. The GI50 in the experiment on 786-0, with SR, with MCF7, in the experiment with CAKI-1, with OVCAR-5 and in the experiment on SK-MEL-5 was > 100 µM (inactive) throughout.
Turning to `COc1ccc(NC2CC(C)N(C(=O)c3ccccc3)O2)cc1` (stereo not drawn), the GI50 in the experiment with RXF 393 is > 10 µM (inactive); with HL-60, 9.91 µM (inactive); in the experiment on OVCAR-4, > 10 µM (inactive); with UACC-257 it was > 10 µM (inactive); in the experiment with SK-MEL-2, > 10 µM (inactive); with Malme-3M, > 10 µM (inactive). For the same molecule, the GI50 with MOLT-4, in the experiment on TK-10, with CCRF-CEM, with RPMI-8226, in the experiment with K562 and in the experiment with DU-145 was > 10 µM (inactive) in each case. Besides, the GI50 with 786-0, in the experiment with SR, in the experiment on MCF7, in the experiment on CAKI-1, with OVCAR-5 and in the experiment with SK-MEL-5 was > 10 µM (inactive) in each case.
Consider `O=C(NC1CCC(=O)N1C(=O)OCc1ccccc1)OCc1ccccc1` (stereo not drawn), for which the GI50 with RXF 393, with UACC-257, in the experiment on SK-MEL-2, in the experiment on Malme-3M, in the experiment with UACC-62 and with MOLT-4 was > 100 µM (inactive) throughout. The GI50 in the experiment on TK-10, in the experiment on NCI-H226, in the experiment with RPMI-8226, in the experiment with K562, with DU-145 and in the experiment with 786-0 was > 100 µM (inactive) throughout. Also, the GI50 in the experiment with SR, in the experiment with MCF7, in the experiment with CAKI-1, in the experiment on OVCAR-5 and in the experiment on SK-MEL-5 was > 100 µM (inactive) in each case.
As for `CCCCOCn1c(=O)[nH]c(=O)c2cc(Br)ccc21`, the GI50 in the experiment on RXF 393 was 42.3 µM (inactive); with HL-60, 42.5 µM (inactive); with OVCAR-4, 49.3 µM (inactive); in the experiment on UACC-257, 43.9 µM (inactive); with SK-MEL-2 it was 40.2 µM (inactive); in the experiment on UACC-62, 42.5 µM (inactive). Also, the GI50 with MOLT-4 is 44.1 µM (inactive); in the experiment with TK-10 it was 53.5 µM (inactive); with CCRF-CEM, 59.4 µM (inactive); in the experiment with NCI-H226 it was 12.6 µM (inactive); in the experiment with K562 it was 51.8 µM (inactive); with DU-145, > 100 µM (inactive). In addition, the GI50 was 53.3 µM (inactive) with 786-0; 46.2 µM (inactive) with SR; 42.5 µM (inactive) with MCF7; 20.8 µM (inactive) with CAKI-1; > 100 µM (inactive) with OVCAR-5; 33.1 µM (inactive) in the experiment with SK-MEL-5.
